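Results reflect a 48-hour exposure of cells in 96-well plates to compound at five concentrations. GI50: concentration for 50% inhibition of growth. The concentration for full growth arrest is given as TGI.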
Key:
Assay in all cases: NCI-60 cell line screen, 48 h
MDA-MB-435 = test system: MDA-MB-435
DMS 273 small cell lung = test system: DMS 273 small cell lung
XF 498 CNS = test system: XF 498 CNS

COc1ccccc1C1C(C#N)=C(N)OC2=C1C(=O)CCC2 (centres undefined)
GI50 (MDA-MB-435): > 100 µM
TGI (MDA-MB-435): > 100 µM

CCCCc1ccc2[n+](c1)C(C(=O)OCC)=PC2 (centres undefined)
TGI (MDA-MB-435): > 100 µM

O=C1c2ccccc2-c2ccc(NC(=O)C3CCCCC3C(=O)O)cc21 (centres undefined)
TGI (MDA-MB-435): > 100 µM

COc1ccc(C(=O)Cc2cc(OC)ccc2OC)cc1
TGI (DMS 273 small cell lung): > 100 µM

Cc1cc(NS(=O)(=O)c2ccc(Nc3c4ccccc4nc4c(C(=O)NCCN(C)C)ccc(Cl)c34)cc2)no1
TGI (XF 498 CNS): 26.7 µM

CC(C)=CCN(N=O)c1ncnc2nc[nH]c12
TGI (MDA-MB-435): > 100 µM

CCOC(=O)C1C(c2cc(OC)c(O)c(OC)c2)c2cc3c(cc2OC1(C)O)OCO3 (centres undefined)
TGI (DMS 273 small cell lung): > 100 µM
TGI (XF 498 CNS): > 100 µM

Reference: PubChem BioAssay (NCI)
